Assay results reported in patent publication US5210193A, “Piperazine derivatives” (American Cyanamid Company, priority 1990, dated 1993).
Where two headings read alike, the source gives them in different places.

How the values were obtained:
[1] = tested on: Escherichia coli CMC 84-11; experiment: in vitro antibacterial MIC, agar plate dilution; assay type: cell-based; settings: Escherichia coli, CMC8411, 18 h, 35° C., read-out: MIC
Method in brief: (§1)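 Agar plate dilution on Mueller-Hinton agar, inoculum approximately 10^4 CFU per organism applied with a Steers replicator. MIC (mcg/ml) is the lowest compound concentration inhibiting visible growth after 18 hours at 35° C.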

[2] = tested on: Escherichia coli ATCC 25922; experiment: in vitro antibacterial MIC, agar plate dilution; assay type: cell-based; settings: 35° C.
Method in brief: as §1

[3] = tested on: Enterobacter aerogenes VGH 84-36; experiment: in vitro antibacterial MIC, agar plate dilution; assay type: cell-based; settings: Klebsiella aerogenes, VGH8436, 18 hours, 35° C., read-out: MIC
Method in brief: as §1

[4] = tested on: Pseudomonas aeruginosa VGH 84-4; experiment: in vitro antibacterial MIC, agar plate dilution; assay type: cell-based; settings: Pseudomonas aeruginosa, VGH844, 18 h, 35° C., read-out: MIC
Method in brief: as §1

[5] = tested on: Klebsiella pneumoniae MOR 84-4; experiment: in vitro antibacterial MIC, agar plate dilution; assay type: cell-based; settings: Klebsiella pneumoniae, MOR844, 18 h, 35° C., read-out: MIC
Method in brief: as §1

[6] = tested on: Morganella morganii VGH 84-11; experiment: in vitro antibacterial MIC, agar plate dilution; assay type: cell-based; settings: VGH8411, 18 hours, 35° C., read-out: MIC
Method in brief: as §1

[7] = tested on: Klebsiella pneumoniae AD; experiment: in vitro antibacterial MIC, agar plate dilution; assay type: cell-based; settings: Klebsiella pneumoniae, 18 h, 35° C., read-out: MIC
Method in brief: as §1

[8] = tested on: Enterobacter cloacae VGH 84-37; experiment: in vitro antibacterial MIC, agar plate dilution; assay type: cell-based; settings: Enterobacter cloacae, VGH8437, 18 h, 35° C., read-out: MIC
Method in brief: as §1

[9] = tested on: Proteus rettgeri CMC 84-41; experiment: in vitro antibacterial MIC, agar plate dilution; assay type: cell-based; settings: Providencia rettgeri, CMC8441, 18 h, 35° C., read-out: MIC
Method in brief: as §1

[10] = tested on: Staphylococcus aureus ATCC 25913; experiment: in vitro antibacterial MIC, agar plate dilution; assay type: cell-based; settings: ATCC25913, 18 hours, 35° C.
Method in brief: as §1

[11] = tested on: Staphylococcus aureus Smith; experiment: in vitro antibacterial MIC, agar plate dilution; assay type: cell-based; settings: Staphylococcus aureus, 18 h, 35° C., read-out: MIC
Method in brief: as §1

[12] = tested on: Staphylococcus aureus Smith; experiment: in vivo antibacterial activity, survival of infected mice (Table III); parameters: species or system Charles River CD-1 mice; settings: subcutaneous
Procedure: Charles River CD-1 mice were infected with either Klebsiella pneumoniae AD or Staphylococcus aureus Smith. A single subcutaneous dose of the test compound was administered 1/2 hour after infection. […] The results appear in Tables II and III, wherein the representative test compounds are identified by the number of their hereinafter described examples.

[13] = tested on: Staphylococcus aureus VGH 84-47; experiment: in vitro antibacterial MIC, agar plate dilution; assay type: cell-based; settings: 18 hours, 35° C.
Method in brief: as §1

[14] = tested on: Pseudomonas aeruginosa CMC 83-20; experiment: in vitro antibacterial MIC, agar plate dilution; assay type: cell-based; settings: Pseudomonas aeruginosa, CMC8320, 18 h, 35° C., read-out: MIC
Method in brief: as §1

[15] = tested on: Citrobacter div. K 82-24; experiment: in vitro antibacterial MIC, agar plate dilution; assay type: cell-based; settings: Citrobacter, DIV.K8224, 18 h, 35° C., read-out: MIC
Method in brief: as §1

[16] = tested on: Serratia marcescens MOR 84-41; experiment: in vitro antibacterial MIC, agar plate dilution; assay type: cell-based; settings: Serratia marcescens, MOR8441, 18 h, 35° C., read-out: MIC
Method in brief: as §1

[17] = tested on: Streptococcus faecalis UCI 85-30; experiment: in vitro antibacterial MIC, agar plate dilution; assay type: cell-based; settings: Enterococcus faecalis, UCI8530, 18 h, 35° C., read-out: MIC
Method in brief: as §1

[18] = tested on: Morganella morganii CMC 84-38; experiment: in vitro antibacterial MIC, agar plate dilution; assay type: cell-based; settings: Morganella morganii, CMC8438, 18 h, 35° C., read-out: MIC
Method in brief: as §1

[19] = tested on: Enterobacter cloacae VGH 84-39; experiment: in vitro antibacterial MIC, agar plate dilution; assay type: cell-based; settings: Enterobacter cloacae, VGH8439, 18 h, 35° C., read-out: MIC
Method in brief: as §1

[20] = tested on: Escherichia coli MOR 84-20; experiment: in vitro antibacterial MIC, agar plate dilution; assay type: cell-based; settings: 18 hours, 35° C.
Method in brief: as §1

[21] = tested on: Enterobacter cloacae K 84-10; experiment: in vitro antibacterial MIC, agar plate dilution; assay type: cell-based; settings: Enterobacter cloacae, K8410, 18 h, 35° C., read-out: MIC
Method in brief: as §1

[22] = tested on: Morganella morganii CMC 84-37; experiment: in vitro antibacterial MIC, agar plate dilution; assay type: cell-based; settings: 18 hours, 35° C.
Method in brief: as §1

[23] = tested on: Escherichia coli CMC 84-50; experiment: in vitro antibacterial MIC, agar plate dilution; assay type: cell-based; settings: Escherichia coli, CMC8450, 18 h, 35° C., read-out: MIC
Method in brief: as §1

[24] = tested on: Proteus rettgeri IO 83-21; experiment: in vitro antibacterial MIC, agar plate dilution; assay type: cell-based; settings: Providencia rettgeri, IO8321, 18 h, 35° C., read-out: MIC
Method in brief: as §1

[25] = tested on: Streptococcus faecalis UCI 85-19; experiment: in vitro antibacterial MIC, agar plate dilution; assay type: cell-based; settings: Enterococcus faecalis, UCI8519, 18 h, 35° C., read-out: MIC
Method in brief: as §1

[26] = tested on: Klebsiella pneumoniae IO 83-5; experiment: in vitro antibacterial MIC, agar plate dilution; assay type: cell-based; settings: Klebsiella pneumoniae, IO835, 18 h, 35° C., read-out: MIC
Method in brief: as §1

[27] = tested on: Staphylococcus aureus CMC 83-131; experiment: in vitro antibacterial MIC, agar plate dilution; assay type: cell-based; settings: Staphylococcus aureus, CMC83131, 18 h, 35° C., read-out: MIC
Method in brief: as §1

[28] = tested on: Serratia marcescens K 84-18; experiment: in vitro antibacterial MIC, agar plate dilution; assay type: cell-based; settings: Serratia marcescens, K8418, 18 h, 35° C., read-out: MIC
Method in brief: as §1

[29] = tested on: Klebsiella pneumoniae MOR 84-24; experiment: in vitro antibacterial MIC, agar plate dilution; assay type: cell-based; settings: Klebsiella pneumoniae, MOR8424, 18 h, 35° C., read-out: MIC
Method in brief: as §1

[30] = tested on: Enterobacter cloacae MOR 84-30; experiment: in vitro antibacterial MIC, agar plate dilution; assay type: cell-based; settings: Enterobacter cloacae, MOR8430, 18 h, 35° C., read-out: MIC
Method in brief: as §1

[31] = tested on: Klebsiella pneumoniae CMC 84-31; experiment: in vitro antibacterial MIC, agar plate dilution; assay type: cell-based; settings: Klebsiella pneumoniae, CMC8431, 18 h, 35° C., read-out: MIC
Method in brief: as §1

[32] = tested on: Serratia marcescens CMC 83-74; experiment: in vitro antibacterial MIC, agar plate dilution; assay type: cell-based; settings: Serratia marcescens, CMC8374, 18 h, 35° C., read-out: MIC
Method in brief: as §1

[33] = tested on: Staphylococcus aureus VGH 84-45; experiment: in vitro antibacterial MIC, agar plate dilution; assay type: cell-based; settings: Staphylococcus aureus, VGH8445, 18 h, 35° C., read-out: MIC
Method in brief: as §1

[34] = tested on: Pseudomonas aeruginosa K 84-16; experiment: in vitro antibacterial MIC, agar plate dilution; assay type: cell-based; settings: Pseudomonas aeruginosa, K8416, 18 h, 35° C., read-out: MIC
Method in brief: as §1

[35] = tested on: Streptococcus faecalis VGH 84-69; experiment: in vitro antibacterial MIC, agar plate dilution; assay type: cell-based; settings: Enterococcus faecalis, VGH8469, 18 h, 35° C., read-out: MIC
Method in brief: as §1

[36] = tested on: Pseudomonas aeruginosa LL-1244; experiment: in vitro antibacterial MIC, agar plate dilution; assay type: cell-based; settings: Pseudomonas aeruginosa, LL1244, 18 h, 35° C., read-out: MIC
Method in brief: as §1

[37] = tested on: Morganella morganii VHG 84-12; experiment: in vitro antibacterial MIC, agar plate dilution; assay type: cell-based; settings: Morganella morganii, VHG8412, 18 h, Morganella morganii VHG 84-12 (VGH 84-12 for Example 131), 35° C., read-out: MIC
Method in brief: as §1

[38] = tested on: Streptococcus faecalis CMC 83-120; experiment: in vitro antibacterial MIC, agar plate dilution; assay type: cell-based; settings: Enterococcus faecalis, CMC83120, 18 h, 35° C., read-out: MIC
Method in brief: as §1

[39] = tested on: Serratia marcescens VGH 84-30; experiment: in vitro antibacterial MIC, agar plate dilution; assay type: cell-based; settings: Serratia marcescens, VGH8430, 18 h, 35° C., read-out: MIC
Method in brief: as §1

[40] = tested on: Morganella morganii MOR 84-45; experiment: in vitro antibacterial MIC, agar plate dilution; assay type: cell-based; settings: Morganella morganii, MOR8445, 18 h, 35° C., read-out: MIC
Method in brief: as §1

[41] = tested on: Escherichia coli VGH 84-19; experiment: in vitro antibacterial MIC, agar plate dilution; assay type: cell-based; settings: 18 hours, 35° C.
Method in brief: as §1

[42] = tested on: Providencia stuarti CMC 83-3; experiment: in vitro antibacterial MIC, agar plate dilution; assay type: cell-based; settings: Providencia, CMC833, 18 h, 35° C., read-out: MIC
Method in brief: as §1

[43] = tested on: Pseudomonas aeruginosa VGH 84-3; experiment: in vitro antibacterial MIC, agar plate dilution; assay type: cell-based; settings: Pseudomonas aeruginosa, VGH843, 18 h, 35° C., read-out: MIC
Method in brief: as §1

[44] = tested on: Staphylococcus aureus K 82-26; experiment: in vitro antibacterial MIC, agar plate dilution; assay type: cell-based; settings: Staphylococcus aureus, K8226, 18 h, 35° C., read-out: MIC
Method in brief: as §1

[45] = tested on: Streptococcus faecalis VGH 84-65; experiment: in vitro antibacterial MIC, agar plate dilution; assay type: cell-based; settings: Enterococcus faecalis, VGH8465, 18 h, 35° C., read-out: MIC
Method in brief: as §1

[46] = tested on: Escherichia coli LL 311; experiment: in vitro antibacterial MIC, agar plate dilution; assay type: cell-based; settings: Escherichia coli, LL311, 18 h, 35° C., read-out: MIC
Method in brief: as §1

[47] = Escherichia coli, ATCC25922, 18 h, read-out: MIC

CCn1cc(C(=O)O)c(=O)c2cc(F)c(N3CCN(C)C(c4ccc(Br)s4)C3)cc21 (stereo not shown) [Example 14, 7-[3-(5-Bromo-2-thienyl)-4-methyl-1-piperazinyl]-1-ethyl-6-fluoro-1,4-dihydro-4-oxo-3-quinolinecarboxylic acid]
> 256 µg/mL: MIC [1] | MIC [2, 47] | MIC [3] | MIC [4] | MIC [5] | MIC [6] | MIC [8]
0.25 µg/mL: MIC [11]
0.5 µg/mL: MIC [10]
128 µg/mL: MIC [9]
5/5: Survival Ratio 7 Days After Infection ([12]; 4 mg/kg single dose) | Survival Ratio 7 Days After Infection ([12]; 8 mg/kg single dose)
0/5: Survival Ratio 7 Days After Infection ([12]; 0.5 mg/kg single dose) | Survival Ratio 7 Days After Infection ([12]; 1 mg/kg single dose) | Survival Ratio 7 Days After Infection ([12]; 2 mg/kg single dose)
256 µg/mL: MIC [7]

O=C(O)c1cn(C2CC2)c2cc(N3CCNC(c4ccccn4)C3)c(F)cc2c1=O (stereo not shown) [Example 128, 1-Cyclopropyl-6-fluoro-1.4-dihydro-4-oxo-7-[3-(2-pyridinyl) -1-piperazinyl]-3-quinolinecarboxylic acid]
8 µg/mL: MIC [17] | MIC [4] | MIC [36] | MIC [39]
0.5 µg/mL: MIC [18] | MIC [19] | MIC [23] | MIC [27] | MIC [28] | MIC [31] | MIC [40]
4 µg/mL: MIC [35] | MIC [38] | MIC [44]
16 µg/mL: MIC [14] | MIC [34]
0.06 µg/mL: MIC [1] | MIC ([2]; 18 hours) | MIC [33] | MIC [46] | MIC [11]
> 16 µg/mL: MIC [32] | MIC [42] | MIC [43]
0.12 µg/mL: MIC [21] | MIC [9]
2 µg/mL: MIC [25]
0.25 µg/mL: MIC [13] | MIC [15] | MIC [20] | MIC [22] | MIC [41]
0.03 µg/mL: MIC [2, 47]
1 µg/mL: MIC [16] | MIC [24] | MIC [26] | MIC [29] | MIC [30] | MIC [37] | MIC [45]

FCC1CNCCN1 (stereo not shown) [Example 23, 2-(Fluoromethyl)piperazine]
0/5: Survival Ratio 7 Days After Infection ([12]; 4 mg/kg single dose) | Survival Ratio 7 Days After Infection ([12]; 8 mg/kg single dose)
5/5: Survival Ratio 7 Days After Infection ([12]; 16 mg/kg single dose) | Survival Ratio 7 Days After Infection ([12]; 32 mg/kg single dose) | Survival Ratio 7 Days After Infection ([12]; 64 mg/kg single dose)
